The text below walks through data of patent publication US20020155117A1, “METHOD FOR DETECTING ORGAN ALLOGRAFT REJECTION AND USES THEREOF” (priority 1996, published 2002).

Holding throughout (type): cell-based, human
For one assay, the system named is TCL LZ-anti-pp 21-42. In words: Proliferation assay of TCL LZ-anti-pp 21-42. More on the design: stimulation of TCL anti-pp 21-42 by overlapping 14-mer peptides: dose or concentration left out as unconfirmed. As to the method:
(§1) FIGS. 1A and 1B. Reactivity of TCLs to the immunizing peptides and to r DR1 proteins. The TCL LZ-anti-pp 1-20 […] and TCL LZ-anti-pp 21-42 […] were tested for reactivity to various concentrations of rDR1 protein and pp 1-20 pr pp 21-42 using 2×10^4 responding cells and 5×10^4 irradiated autologous APCs per well. Cultures were labeled after 48 hours and harvested 18 hours later. Results are expressed as mean cpm of triplicate cultures. The standard deviation of measure was less than 10%.
FIGS. 2A and 2B. HLA-DR restriction of peptide recognition by TCLs. The TCL LZ-anti-pp 1-20 (FIG. 2A) and TCL LZ-anti-pp 21-42 (FIG. 2B) were stimulated with […] peptide (pp 1-20 for LZ-anti-pp 1-20 and pp 21-42 for LZ-anti-pp 21-42) in the presence of autologous and allogeneic APCs sharing with the responder one or no DR antigen. Assays were done as described in the description of FIGS. 1A and 1B.
FIG. 3. Determination of the core epitope of the dominant determinant of DR1 molecule. TCL LZ-anti-pp 21-42 was stimulated in individual cultures with nine overlapping 14-mer peptides ([…]) moving along residues 21-42 in single residue steps. The reactions were set up as described in the description of FIGS. 1A and 1B.
FIG. 4. Suppression of TCL reactivity by high concentrations of antigen. The proliferative response of TCL LZ-anti-pp 21-42 was tested as described in the description of FIGS. 1A and 1B using different concentrations of pp 22-35. The response was abolished at a concentration […].
(§2) T cells were grown in 24 well plates (Nunc, Inc., Naperville, Ill.) in RPM1 1640 medium supplemented with 10% human AB serum, […] L-glutamine, and 50 μg/ml gentamicin (Gibco, Grand Island, N.Y.). On day 10, rIL-2 was added at 5 μ/ml. Fourteen days after priming, T cells were collected, washed and restimulated at 10^6/ml with antigen, in culture medium containing rIL-2 (20 u/ml) and irradiated (3000 rad) autologous PBMCs (2×10^6/ml). Following three stimulations, two TCLs, named LZ-anti-pp1-20 and LZ-anti-pp21-42, were obtained.
Responding T cells (2×10^4/well) were cultured with irradiated APCs of responder or stimulator origin (5×10^4/well) in round bottom microtiter plates (Nunc Inc., Naperville, Ill.). Antigens were added to the cultures at the concentrations indicated. [^3H] thymidine (1 μCi/well) was added after 48 hours, and the cultures were harvested 18 hours later. [^3H] thymidine incorporation was measured in an LK Betaplate liquid scintillation counter (Wallace, Inc., Gaithersburg, Md.). Mean cpm in triplicate cultures and standard deviation of the mean were calculated.
The immune response of mature T cells can paradoxically be suppressed by high doses of antigen (Suzuki et al., 1988; and Critchfield et al, 1994). The possibility of suppressing indirect allorecognition was explored by testing the reactivity of TCL LZ-anti-pp 21-42 to increasing concentrations of pp 22-35 in the presence of autologous APC. The reactivity of the line started to decline when the concentration of the peptide was increased above 3 μM (FIG. 4).
(§3) T cells cultured with 27 μM of pp 22-35 lost viability (>90% Preputium iodide positive) within 72 hours, while T cells grown with high concentration of the irrelevant peptide alone were unaffected

The subject of assay [1] is IL-2 expanded PBMCs of DR11 positive heart allograft recipients. In words: Limiting dilution analysis (LDA) of Th frequency in the periphery, Example 1. The note with it: for T helper cell frequency, circulation: + self PBMC. As for the experimental part:
FIG. 6. Suppression of in vivo activated T cells by high doses of antigen. PBMCs obtained from patient […] on day 55 were expanded in IL-2 for 14 days and then tested in LDA (limiting dilution analysis) for reactivity to pp 22-35 at concentrations of […] in the presence of autologous APCs.
The LDA study of Th frequency in the periphery was performed using the method described by Zhang et al. (Zhang et al., 1994) with some modifications. PBMCs were plated at 2×10^4, 1×10^4 and 5×10^3 cells per well (24 wells for each concentration) in 0.1 ml medium containing 40 U/ml of rIL-2. On day 7, 0.1 ml fresh medium with rIL-2 was added to each well. After 14 days, each culture was split into 3 aliquots: one was cultured with autologous (patient) irradiated PBMC (5×10^4/well), the second with autologous PBMC plus pp 22-35, and the third with donor spleen cells (5×10^4/well). The cultures were pulsed with [^3H] thymidine ([…]) after 48 hours and harvested 18 hours later.
To establish whether the reactivity of in vivo activated T cells to peptide 22-35 can be suppressed by high concentrations of antigen the following experiment was performed: PBMC from […] were cultured for 14 days at different cell concentrations in medium with IL-2. Cultures were then tested in the presence of autologous APCs for reactivity to pp 22-35 at concentrations of 1 μM and 15 μM. At 1 μM of antigen there were 8×10^−6 reactive T cells while at 15 μM there was no reactivity (FIG. 6).

Assay [2] relates to T cells infiltrating the graft. Nature of the assay: Limiting dilution analysis of Th frequency among lymphocytes infiltrating the graft, Example 1. The note with it: patient three, + self PBMC. An excerpt:
Biopsy tissue was washed twice with medium supplemented with 5 u/ml rIL-2. Cell growth was checked everyday. The medium was changed twice a week. T cells infiltrating the graft were further expanded in medium with rIL-2 for 7-14 days. When the cell number reached 1×10^6, they were harvested and plated at 400, 200 and 100 cells per well in the presence of autologous PBMC (5×10^4/per well) in 24 replicate cultures. Cultures were maintained and assayed for reactivity as described above. The precursor frequency of Th cells recognizing pp 22-35 and donor spleen cells was analyzed by Poisson statistics (Liu et al., 1992; and Zhang et al., 1994).

Assay [3] relates to PBMC from a responder (LZ), expressing HLA-DR β1*1101/1201. Nature of the assay: In vitro immunization of PBMC from responder LZ with DR1 peptides (blastogenesis with autologous APCs). The note with it: peptide 5 μg/ml. As to the method: Development of Allo-peptide Specific T Cell Lines for Epitope Mapping. PBMCs (at 10^6/ml) from a healthy person ([…]) with HLA-DRβ1*1101/1201 genotype were primed in individual cultures (Liu et al., 1992) with each or the following seven DR1 peptides(5 μg/ml) spanning the first domain of the Drβ1*0101 chain:
as §2
To monitor indirect recognition in allograft recipients, a determination was made as to whether T cell recognize one or more peptides resulting from the processing of an allogeneic MHC molecule by responder APCs. For this, in vitro PBMC were immunized from a responder (LZ), expressing HLA-DR β1*1101/1201, with seven partially overlapping peptides corresponding to the first domain of the Drβ1*0101 molecule. […] The resulting T cell lines were tested for their ability to recognize native rDR1 molecule at various protein concentrations.

For a further assay, the system named is TCL LZ-anti-pp 1-20. Nature of the assay: Proliferation assay of TCL LZ-anti-pp 1-20. As to the method:
as §1
FIGS. 2A and 2B. HLA-DR restriction of peptide recognition by TCLs. The TCL LZ-anti-pp 1-20 (FIG. 2A) and TCL LZ-anti-pp 21-42 (FIG. 2B) were stimulated with […] peptide (pp 1-20 for LZ-anti-pp 1-20 and pp 21-42 for LZ-anti-pp 21-42) in the presence of autologous and allogeneic APCs sharing with the responder one or no DR antigen. Assays were done as described in the description of FIGS. 1A and 1B. […]
Responding T cells (2×10^4/well) were cultured with irradiated APCs of responder or stimulator origin (5×10^4/well) in round bottom microtiter plates (Nunc Inc., Naperville, Ill.). […] [^3H] thymidine incorporation was measured in an LK Betaplate liquid scintillation counter (Wallace, Inc., Gaithersburg, Md.). Mean cpm in triplicate cultures and standard deviation of the mean were calculated.

In assay [4] the test system is TCL LZ-anti-pp 21-42 T cells. In words: Viability of T cells cultured with high peptide concentration (Preputium iodide). The note with it: high concentration of the irrelevant peptide alone. As for the experimental part: as §3
A further assay concerns TCL-PR. In words: Proliferative response of TCL-PR to DR4 peptide. The text has this: The identification of the core epitope of the DR4/69-88 peptide has been accomplished. […] The peptide KRAAVDTYCRHNYG carries the expected anchor residues required by the peptide binding motif of the DTRβ1*1101 restriction molecule (i+7) as well as the TCR contact residues involved in the stimulation of TCL-PR.
The objective of these studies is to establish whether high doses of dominant peptide are tolerogenic. To increase resistance against enzymatic degradation D-Lysine is placed at the N-terminus and the C-terminus is amidated. We have established that the optimal dose of the dominant peptide (4/71-84) required for inducing maximal proliferation of TCR-PR is 5 μg/ml or approximately 5×10^−7M. Increasing concentration of peptide 4/71-84 (ranging from 10^−8 to 10^−4M) may be used to determine the dose required to reduce proliferation to the background values observed in cultures with APCs and no peptide. The viability of the cells will be assayed and physiological studies will be performed to determine whether the lack of proliferation results from the induction of enery of apoptosis.

Ends that are not written are not given here.

Take “ERVRLLERCIYNQE [pp 22-35, ERVRLLERCIYNQE]”: the peptide concentration at which the proliferative response was abolished with TCL LZ-anti-pp 21-42 (FIG. 4 legend) was 27 µM. The “peptide concentration above which reactivity of the line started to decline” value with TCL LZ-anti-pp 21-42 (autologous APC, FIG. 4) is “above 3 μM”. The “peptide concentration for complete suppression of TCL reactivity” value in the assay on TCL LZ-anti-pp 21-42 (autologous APC, FIG. 4) came to 27 µM. In the assay on TCL LZ-anti-pp 21-42 (autologous APCs, FIG. 3), the “stimulation of TCL anti-pp 21-42 by overlapping 14-mer peptides” value was “stimulated strongly”. Further, in the assay with TCL LZ-anti-pp 21-42 (pp 22-35), the “TCL-ZL response to pp 22-35” value is given as 17×10^3 cpm. For the same substance, the “reactive T cells in LDA at low antigen concentration” value in assay [1] (patient PBMC (day 55), 1 μM of antigen, autologous APCs, FIG. 6) is reported as 8×10^−6. Also, in assay [1] (patient PBMC (day 55), 15 μM of antigen, autologous APCs, FIG. 6), the “reactive T cells in LDA at high antigen concentration” value was “no reactivity”. In addition, the “T helper cell frequency, circulation” value is given as 0 in assay [1] (patient one, 1 Mo after transplantation); 6×10^−6 in assay [1] (patient one, 12 Mo after transplantation (chronic rejection)); 6.0 × 10^−6 in assay [1] (patient one, 12 Mo after transplantation (chronic rejection), listed as pp22-35); 0 in assay [1] (patient three, 27 d after transplantation); 7.4×10^−6 in assay [1] (patient three, 41 d after transplantation); 7.4 × 10^−6 in assay [1] (patient three, 41 d after transplantation, listed as pp22-35). Also, the “T helper cell frequency, circulation” value in assay [1] (patient three, 55 d after transplantation (acute rejection), listed as pp22-35) is 8.0 × 10^−6; in assay [1] (patient three, 55 d after transplantation (acute rejection), listed as pp-22-35) it was 8×10^−6; in assay [1] (patient three, 82 d after transplantation (acute rejection), listed as pp22-35), 6.5 × 10^−6; in assay [1] (patient three, 82 d after transplantation (acute rejection), listed as pp-22-35) it was 6.5e-06; in assay [1] (patient two, 12 Mo after transplantation), “failed to react”; in assay [1] (patient two, 12 Mo after transplantation, listed as pp22-35), 0. Also, the “T helper cell frequency, graft” value in assay [2] (55 d biopsy) was 4.3×10^−4; in assay [2] (55 d biopsy, listed as pp22-35) it was 4.3 × 10^−4; in assay [2] (82 d biopsy), 3.3×10^−4; in assay [2] (82 d biopsy, listed as pp22-35), 3.3 × 10^−4.

Consider “GDTRPRFLWQLKFECHFFNG (GDTRPRFLWQLKFECHFFNG) [pp 1-20, residues 1-20 of Drβ1*0101 chain]”, for which, in assay [3], the “blastogenesis after in vitro immunization of PBMC” value is recorded as “elicited blastogenesis”. Besides, the “reactivity of TCL LZ-anti-pp 1-20” value in the assay with TCL LZ-anti-pp 1-20 (autologous APCs, various concentrations, FIG. 1) is “stimulated strongly”. Moreover, the “HLA-DR restriction of peptide recognition by TCL anti-pp 1-20” value in the assay with TCL LZ-anti-pp 1-20 (autologous and allogeneic APCs, FIG. 2A) was “only when presented by APCs carrying the Drβ1*1101 allele”.

With “K G N N D E S N I S F K E K D (KGNNDESNISFKEKD) [NDA4-derived peptide, irrelevant synthetic peptide corresponding to the N-terminus of the NDA4 molecule, reference compound]”, the “viability of T cells grown with peptide alone” value in assay [4] is reported as “unaffected”. For the same substance, in the assay with TCL LZ-anti-pp 21-42 (pp 22-35 at plus NDA4-derived peptide at 30-50 μM), the “TCL-ZL response to pp 22-35 in the presence of irrelevant peptide” value is 15-17×10^3 cpm.

With “K R A A V D T Y C R H N Y G (KRAAVDTYCRHNYG) [4/71-84]”, in the assay on TCL-PR, the “optimal dose required for inducing maximal proliferation of TCR-PR” value is 5 μg/ml and approximately 5×10^−7 M; the “potency in stimulating the proliferative response of TCL-PR (core epitope of DR4/69-88)” value is “most potent”.

As to “TERVRLLERCIYNQEESVREDS (TERVRLLERCIYNQEESVREDS) [pp 21-42, residues 21-42 of Drβ1*0101 chain]”, the “reactivity of TCL LZ-anti-pp 21-42” value in the assay on TCL LZ-anti-pp 21-42 (autologous APCs, various concentrations, FIG. 1B) was “reacted vigorously”. Also, the “HLA-DR restriction of peptide recognition by TCL anti-pp 21-42” value in the assay with TCL LZ-anti-pp 21-42 (autologous and allogeneic APCs, FIG. 2B) is recorded as “only when presented by APCs carrying the Drβ1*1101 allele”. Moreover, the “blastogenesis after in vitro immunization of PBMC” value in assay [3] is on record as “elicited blastogenesis”.
